The text below walks through data of US3988364A, “Novel N,N-di-substituted amidines and several acid-addition salts thereof” (Toyo Jozo Kabushiki Kaisha, priority 1972, dated 1976).

The test system of one series is dogs. Briefly: Antitussive activity (50%-antitussive effective dose AtD50; efficiency ratio relative to codeine phosphate). The series is classed as in vivo. The settings on record: intravenous injection; for Antitussive Ratio: efficiency ratio relative to codeine phosphate. The procedure:
route of administration:
From the efficiency rate obtained upon each administration step, 50%-antitussive effective dose (AtD50) was calculated according to the Litchfield-Wilcoxon method. Further, efficiency ratio relative to codeine phosphate was also determined.

The next series has as its system male mice of ddy-strain. The series can be described thus: in vivo. The series is classed as in vivo. The settings on record: subcutaneous injection, 72 hours, Litchfield-Wilcoxon.
For a further series, the system named is persons. The settings on record: in words; inhibits long continuous administration; cited from earlier work.
A further series can be described thus: in vivo. Type of series: in vivo. The settings on record: mouse, in vivo, sc, male ddy mice, subcutaneous injection, Litchfield-Wilcoxon.

SMILES strings stand for the structures. Counter-ions that a name gives are not always drawn.
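For LD50 in this document: animals allocated into more than five groups, with five mice per group.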

From the text for male mice of ddy-strain: test animals: more than five groups, each group
consisting of five male mice of ddy-

What is called LD50 is the dose at which mortality reaches 50%. As to `COc1ccc2c3c1O[C@H]1[C@@H](O)C=C[C@H]4[C@@H](C2)N(C)CC[C@@]341` [Compound 17, codeine phosphate, reference compound], the ED50 in the series with dogs (Canis lupus familiaris, Litchfield-Wilcoxon method, read-out: AtD50 (50%-antitussive effective dose)) was 2.2 mg/kg. Also, the “Antitussive Ratio” value with dogs was 1.00. In the series with male mice of ddy-strain, this molecule had a median lethal dose (LD50) of 190 mg/kg. Further, in the series with persons, the habituation result is reported as “appreciable habituation”.
With `Cl.Clc1ccc(C(OCCN2CCCCC2)c2ccccc2)cc1` (stereo not shown) [Compound 13, Hustazol, reference compound], in the series with dogs, the “Antitussive Ratio” value was found to be 0.52. In addition, the LD50 with male mice of ddy-strain was found to be 375 mg/kg.
As for `Cl.c1ccc(N(CCN2CCCCC2)Cc2ccccn2)cc1` [Compound 11, picoperidamine hydrochloride, reference compound], the “Antitussive Ratio” value in the series with dogs was found to be 0.95. Also, the 50% lethal dose (LD50) in the series with male mice of ddy-strain was 144 mg/kg.
With `Cc1ccc(NC(=NC2CCCCC2)c2ccccc2)cc1` [Compound 2, hydrochloric acid salt of N-cyclohexyl, N'-p-tolyl-benzamidine], the “Antitussive Ratio” value with dogs came out at 0.58. Also, the LD50 at 72 h in “in vivo” was 186 mg/kg.
